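In this assay, cells in 96-well plates receive the compound at five concentrations for 48 hours. Endpoints are linearly interpolated between the surrounding concentrations. GI50: concentration for 50% inhibition of growth. The concentration for full growth arrest is given as TGI.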
How the values were obtained:
Assay in all cases: DTP human tumour cell line panel, 48 h; in the data active = GI50 below about 0.43 µM; inactive = the rest
OVCAR-5 ovarian = system: OVCAR-5 ovarian
MCF7 breast = system: MCF7 breast
SF-268 CNS = system: SF-268 CNS
SNB-75 CNS = system: SNB-75 CNS
DU-145 prostate = system: DU-145 prostate
M14 melanoma = system: M14 melanoma
MDA-MB-435 = system: MDA-MB-435
RPMI-8226 leukemia = system: RPMI-8226 leukemia
SK-MEL-28 melanoma = system: SK-MEL-28 melanoma
NCI-H460 lung = system: NCI-H460 lung
T-47D breast = system: T-47D breast
SN12C renal = system: SN12C renal
EKVX NSCLC = system: EKVX NSCLC
NCI-H23 lung = system: NCI-H23 lung
SNB-19 CNS = system: SNB-19 CNS
NCI/ADR-RES ovarian = system: NCI/ADR-RES ovarian
SW-620 colon = system: SW-620 colon
SK-OV-3 ovarian = system: SK-OV-3 ovarian
PC-3 prostate = system: PC-3 prostate
HT29 colon = system: HT29 colon
HS 578T breast = system: HS 578T breast
OVCAR-4 ovarian = system: OVCAR-4 ovarian
A549 NSCLC = system: A549 NSCLC
SF-295 CNS = system: SF-295 CNS
NCI-H522 lung = system: NCI-H522 lung
HCT-116 colon = system: HCT-116 colon
HL-60(TB) leukemia = system: HL-60(TB) leukemia
SR leukemia = system: SR leukemia
LOX IMVI melanoma = system: LOX IMVI melanoma
OVCAR-3 ovarian = system: OVCAR-3 ovarian
MDA-MB-231 breast = system: MDA-MB-231 breast
CCRF-CEM leukemia = system: CCRF-CEM leukemia
SK-MEL-2 melanoma = system: SK-MEL-2 melanoma
MOLT-4 leukemia = system: MOLT-4 leukemia
KM12 colon = system: KM12 colon
A498 renal = system: A498 renal
COLO 205 colon = system: COLO 205 colon
TK-10 renal = system: TK-10 renal
HCC-2998 colon = system: HCC-2998 colon
HCT-15 colon = system: HCT-15 colon
NCI-H226 lung = system: NCI-H226 lung
CAKI-1 renal = system: CAKI-1 renal
IGROV1 ovarian = system: IGROV1 ovarian
UO-31 renal = system: UO-31 renal
SF-539 CNS = system: SF-539 CNS
HOP-92 NSCLC = system: HOP-92 NSCLC
SK-MEL-5 melanoma = system: SK-MEL-5 melanoma
MALME-3M melanoma = system: MALME-3M melanoma
ACHN renal = system: ACHN renal
K-562 leukemia = system: K-562 leukemia
U251 CNS = system: U251 CNS
786-0 renal = system: 786-0 renal
HOP-62 NSCLC = system: HOP-62 NSCLC
UACC-62 melanoma = system: UACC-62 melanoma
UACC-257 melanoma = system: UACC-257 melanoma
RXF 393 renal = system: RXF 393 renal
OVCAR-8 ovarian = system: OVCAR-8 ovarian

COc1ccc(-n2cc(-c3cc(OC)c(OC)c(OC)c3)nc2SCc2ccccc2)cc1
56.7 µM: TGI (SK-MEL-5 melanoma)
> 100 µM: TGI (OVCAR-5 ovarian) | TGI (MCF7 breast) | TGI (SF-268 CNS) | TGI (DU-145 prostate) | TGI (M14 melanoma) | TGI (MDA-MB-435) | TGI (RPMI-8226 leukemia) | TGI (SK-MEL-28 melanoma) | TGI (NCI-H460 lung) | TGI (T-47D breast) | TGI (SN12C renal) | TGI (EKVX NSCLC) | TGI (NCI-H23 lung) | TGI (SNB-19 CNS) | TGI (NCI/ADR-RES ovarian) | TGI (SW-620 colon) | TGI (SK-OV-3 ovarian) | TGI (PC-3 prostate) | TGI (HT29 colon) | TGI (HS 578T breast) | TGI (OVCAR-4 ovarian) | TGI (A549 NSCLC) | TGI (SF-295 CNS) | TGI (NCI-H522 lung) | TGI (HCT-116 colon) | TGI (HL-60(TB) leukemia) | TGI (SR leukemia) | TGI (LOX IMVI melanoma) | TGI (OVCAR-3 ovarian) | TGI (MDA-MB-231 breast) | TGI (CCRF-CEM leukemia) | TGI (SK-MEL-2 melanoma) | TGI (MOLT-4 leukemia) | TGI (KM12 colon) | TGI (A498 renal) | TGI (COLO 205 colon) | TGI (TK-10 renal) | TGI (HCC-2998 colon) | TGI (HCT-15 colon) | TGI (NCI-H226 lung) | TGI (CAKI-1 renal) | TGI (IGROV1 ovarian) | TGI (UO-31 renal) | TGI (SF-539 CNS) | TGI (HOP-92 NSCLC) | TGI (MALME-3M melanoma) | TGI (ACHN renal) | TGI (K-562 leukemia) | TGI (U251 CNS) | TGI (786-0 renal) | TGI (HOP-62 NSCLC) | TGI (UACC-62 melanoma)
inactive: GI50 (OVCAR-5 ovarian) > 100 µM | GI50 (MCF7 breast) 15.4 µM | GI50 (SF-268 CNS) > 100 µM | GI50 (SNB-75 CNS) 7.04 µM | GI50 (DU-145 prostate) > 100 µM | GI50 (M14 melanoma) > 100 µM | GI50 (MDA-MB-435) > 100 µM | GI50 (RPMI-8226 leukemia) 5.5 µM | GI50 (SK-MEL-28 melanoma) 76.6 µM | GI50 (NCI-H460 lung) 52.6 µM | GI50 (T-47D breast) 7.89 µM | GI50 (SN12C renal) > 100 µM | GI50 (EKVX NSCLC) 11.6 µM | GI50 (NCI-H23 lung) > 100 µM | GI50 (SNB-19 CNS) > 100 µM | GI50 (NCI/ADR-RES ovarian) 26.8 µM | GI50 (SW-620 colon) > 100 µM | GI50 (SK-OV-3 ovarian) > 100 µM | GI50 (PC-3 prostate) 8.7 µM | GI50 (HT29 colon) 35.6 µM | GI50 (HS 578T breast) > 100 µM | GI50 (OVCAR-4 ovarian) 13.3 µM | GI50 (A549 NSCLC) 79.6 µM | GI50 (SF-295 CNS) > 100 µM | GI50 (NCI-H522 lung) 31.5 µM | GI50 (HCT-116 colon) 17.5 µM | GI50 (HL-60(TB) leukemia) 10 µM | GI50 (SR leukemia) 54 µM | GI50 (LOX IMVI melanoma) 74.7 µM | GI50 (OVCAR-3 ovarian) 47.4 µM | GI50 (MDA-MB-231 breast) > 100 µM | GI50 (CCRF-CEM leukemia) 3.63 µM | GI50 (SK-MEL-2 melanoma) > 100 µM | GI50 (MOLT-4 leukemia) 9.03 µM | GI50 (KM12 colon) 60 µM | GI50 (A498 renal) > 100 µM | GI50 (COLO 205 colon) 49.5 µM | GI50 (TK-10 renal) > 100 µM | GI50 (HCC-2998 colon) 45.5 µM | GI50 (HCT-15 colon) > 100 µM | GI50 (NCI-H226 lung) > 100 µM | GI50 (CAKI-1 renal) > 100 µM | GI50 (IGROV1 ovarian) > 100 µM | GI50 (UO-31 renal) 28 µM | GI50 (SF-539 CNS) > 100 µM | GI50 (HOP-92 NSCLC) 28.9 µM | GI50 (SK-MEL-5 melanoma) 8.54 µM | GI50 (MALME-3M melanoma) > 100 µM | GI50 (ACHN renal) 78.8 µM | GI50 (K-562 leukemia) 9.43 µM | GI50 (U251 CNS) 43.8 µM | GI50 (786-0 renal) > 100 µM | GI50 (HOP-62 NSCLC) 78 µM | GI50 (UACC-62 melanoma) 42.2 µM
66.8 µM: TGI (SNB-75 CNS)

CCOc1ccccc1NC(=O)c1cc2ccccc2cc1O
10.8 µM: TGI (NCI-H226 lung)
12.5 µM: TGI (UO-31 renal)
7.62 µM: TGI (RXF 393 renal)
12.6 µM: TGI (SW-620 colon) | TGI (CAKI-1 renal)
19.6 µM: TGI (OVCAR-4 ovarian)
32.9 µM: TGI (CCRF-CEM leukemia)
10.1 µM: TGI (PC-3 prostate)
14.5 µM: TGI (DU-145 prostate) | TGI (T-47D breast)
11 µM: TGI (M14 melanoma)
25.1 µM: TGI (SNB-19 CNS)
5.98 µM: TGI (UACC-257 melanoma)
15.8 µM: TGI (SNB-75 CNS) | TGI (SF-539 CNS)
7.08 µM: TGI (MDA-MB-435)
14.2 µM: TGI (NCI/ADR-RES ovarian)
inactive: GI50 (OVCAR-5 ovarian) 7.06 µM | GI50 (MCF7 breast) 2.49 µM | GI50 (SF-268 CNS) 3.91 µM | GI50 (SNB-75 CNS) 2.89 µM | GI50 (DU-145 prostate) 3.71 µM | GI50 (M14 melanoma) 3.15 µM | GI50 (UACC-257 melanoma) 2.23 µM | GI50 (MDA-MB-435) 2.38 µM | GI50 (RPMI-8226 leukemia) 2.04 µM | GI50 (SK-MEL-28 melanoma) 4.91 µM | GI50 (NCI-H460 lung) 2.94 µM | GI50 (T-47D breast) 2.67 µM | GI50 (SN12C renal) 2.64 µM | GI50 (EKVX NSCLC) 2.67 µM | GI50 (NCI-H23 lung) 2.59 µM | GI50 (SNB-19 CNS) 4.28 µM | GI50 (NCI/ADR-RES ovarian) 3.13 µM | GI50 (SW-620 colon) 3.67 µM | GI50 (PC-3 prostate) 2.73 µM | GI50 (HT29 colon) 8.35 µM | GI50 (HS 578T breast) 2.85 µM | GI50 (OVCAR-4 ovarian) 3.69 µM | GI50 (A549 NSCLC) 3.19 µM | GI50 (SF-295 CNS) 2.84 µM | GI50 (NCI-H522 lung) 2.22 µM | GI50 (HCT-116 colon) 2.88 µM | GI50 (HL-60(TB) leukemia) 2.31 µM | GI50 (LOX IMVI melanoma) 3.28 µM | GI50 (OVCAR-3 ovarian) 3.16 µM | GI50 (MDA-MB-231 breast) 2.02 µM | GI50 (CCRF-CEM leukemia) 2.58 µM | GI50 (SK-MEL-2 melanoma) 2.42 µM | GI50 (MOLT-4 leukemia) 2.72 µM | GI50 (KM12 colon) 2.59 µM | GI50 (A498 renal) 2.16 µM | GI50 (RXF 393 renal) 2.63 µM | GI50 (COLO 205 colon) 12.7 µM | GI50 (TK-10 renal) 4.08 µM | GI50 (HCC-2998 colon) 4 µM | GI50 (HCT-15 colon) 3.27 µM | GI50 (NCI-H226 lung) 2.81 µM | GI50 (CAKI-1 renal) 3.45 µM | GI50 (IGROV1 ovarian) 4.66 µM | GI50 (UO-31 renal) 2.81 µM | GI50 (SF-539 CNS) 3.05 µM | GI50 (HOP-92 NSCLC) 1.72 µM | GI50 (SK-MEL-5 melanoma) 1.82 µM | GI50 (MALME-3M melanoma) 2.3 µM | GI50 (ACHN renal) 2.96 µM | GI50 (K-562 leukemia) 3.28 µM | GI50 (OVCAR-8 ovarian) 3.16 µM | GI50 (U251 CNS) 3.11 µM | GI50 (786-0 renal) 3.34 µM | GI50 (HOP-62 NSCLC) 3.32 µM | GI50 (UACC-62 melanoma) 2.18 µM
8.02 µM: TGI (HCT-116 colon)
25.4 µM: TGI (HT29 colon)
7.03 µM: TGI (NCI-H460 lung)
9.46 µM: TGI (SF-295 CNS)
8.98 µM: TGI (OVCAR-3 ovarian)
9.24 µM: TGI (SN12C renal)
6.9 µM: TGI (NCI-H522 lung)
7.15 µM: TGI (KM12 colon)
11.3 µM: TGI (EKVX NSCLC) | TGI (OVCAR-8 ovarian)
20.2 µM: TGI (SK-MEL-28 melanoma)
5.47 µM: TGI (HL-60(TB) leukemia) | TGI (SK-MEL-2 melanoma)
10.3 µM: TGI (TK-10 renal) | TGI (ACHN renal)
26.3 µM: TGI (COLO 205 colon)
5.08 µM: TGI (HOP-92 NSCLC)
9.45 µM: TGI (NCI-H23 lung)
5.55 µM: TGI (A498 renal)
11.6 µM: TGI (A549 NSCLC) | TGI (U251 CNS)
13.1 µM: TGI (MCF7 breast)
7.17 µM: TGI (MOLT-4 leukemia)
6.56 µM: TGI (RPMI-8226 leukemia)
11.2 µM: TGI (LOX IMVI melanoma)
10.2 µM: TGI (MALME-3M melanoma)
16.7 µM: TGI (HOP-62 NSCLC)
9.55 µM: TGI (UACC-62 melanoma)
20.4 µM: TGI (SF-268 CNS)
7.14 µM: TGI (HS 578T breast)
3.7 µM: TGI (SK-MEL-5 melanoma)
4.19 µM: TGI (MDA-MB-231 breast)
15.6 µM: TGI (HCC-2998 colon) | TGI (HCT-15 colon)
38.7 µM: TGI (IGROV1 ovarian)
27.7 µM: TGI (OVCAR-5 ovarian)
9.13 µM: TGI (786-0 renal)
14.1 µM: TGI (K-562 leukemia)

Reference: PubChem BioAssay (NCI)
